Experimental data reported in article PMC10349806 (Nature Communications, 2023).
Several values for one entry are separate records, joined by “and”; a condition that tells them apart may be missing. Equal values may be shown once.

Key:
PfCRT variant E54A = molecular target: T1, PfCRT variant E54A (Plasmodium falciparum, UniProt Q9N623, A220S/E54A/I356T/K76T/M74I/N326S/N75E/Q271E/R371I); experiment: CQ uptake assay, oocytes expressing E54A; type: cell-based
T1 sequence (Q9N623 1-424 E54A/M74I/N75E/K76T/A220S/Q271E/N326S/I356T/R371I): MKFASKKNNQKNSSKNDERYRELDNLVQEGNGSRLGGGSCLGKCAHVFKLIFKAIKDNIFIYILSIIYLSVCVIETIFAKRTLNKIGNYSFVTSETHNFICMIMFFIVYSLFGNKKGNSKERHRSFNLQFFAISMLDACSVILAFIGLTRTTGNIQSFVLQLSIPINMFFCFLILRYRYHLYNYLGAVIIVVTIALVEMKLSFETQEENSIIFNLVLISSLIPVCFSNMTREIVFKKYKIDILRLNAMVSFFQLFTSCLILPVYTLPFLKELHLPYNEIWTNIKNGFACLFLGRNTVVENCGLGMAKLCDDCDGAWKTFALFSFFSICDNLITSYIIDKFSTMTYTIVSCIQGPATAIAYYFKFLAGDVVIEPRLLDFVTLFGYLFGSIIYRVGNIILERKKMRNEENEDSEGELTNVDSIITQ
Experimental: (§1) Site-directed mutagenesis of PfCRT^Dd2 was performed as described using the megaprimer method with overlap extension[21],[54]. The primer pairs used are listed in Supplementary Table 6. Please note that a codon-optimized and oocyte-adapted version of PfCRT^Dd2 was used[22] (Supplementary Fig. 16). The resulting DNA fragment was cloned into the SP64T expression vector and verified by sequencing.
Oocytes were obtained as described previously. Briefly, adult (>2 years old) female X. laevis frogs (NASCO) were anesthetized in a cooled solution of ethyl 3-amino benzoate methanesulfonate (0.1%, w/v), followed by a surgical removal of parts of the ovary. The ovary lobes were carefully dissected and small pieces of oocytes were incubated in Ca^2+-free ND96 buffer (96 mM NaCl, 2 mM KCl, 1 mM MgCl2 buffered with 5 mM HEPES/NaOH, pH 7.5) supplemented with collagenase D (0.1%, w/v; Roche), BSA (0.5%, w/v), and 9 mm Na2HPO4 at 18 °C for 14-16 h while gentle shaking. After incubation, the oocytes were carefully washed several times with ND96 buffer (96 mM NaCl, 2 mM KCl, 1.8 mM CaCl2, 1 mM MgCl2 buffered with 5 mM HEPES/NaOH, pH 7.5) supplemented with 100 mg l^−1 gentamycin). Defolliculated and healthy-looking stage V-VI oocytes were manually selected for RNA microinjection. The RNA was generated as following: The codon-optimized sequences of PfCRT variants were cloned into the pSP64T expression vector. After vector linearization using the restriction endonucleases BamHI or SalI (New England Biolabs), transcription was performed using the in vitro SP6 mMessage mMachine Kit (Ambion)[34]. The obtained RNA was kept at −80 °C and diluted with nuclease-free water to a concentration of 0.6 μg μl^−1. […]
Drug uptake assays were performed as described previously[21],[22],[24],[34]. […] The radioactivity of each sample was measured using a liquid scintillation analyzer Tri-Carb 4910 TR (PerkinElmer). Oocytes that were injected with water instead of RNA were analyzed in parallel, representing the uptake of a drug by diffusion and/or endogenous permeation pathways. […]

PfCRT variant E207W = experiment: CQ uptake assay, oocytes expressing E207W; type: cell-based, Plasmodium falciparum
Experimental: as §1
Oocytes were obtained as described previously. Briefly, adult (>2 years old) female X. laevis frogs (NASCO) were anesthetized in a cooled solution of ethyl 3-amino benzoate methanesulfonate (0.1%, w/v), followed by a surgical removal of parts of the ovary. The ovary lobes were carefully dissected and small pieces of oocytes were incubated in Ca^2+-free ND96 buffer (96 mM NaCl, 2 mM KCl, 1 mM MgCl2 buffered with 5 mM HEPES/NaOH, pH 7.5) supplemented with collagenase D (0.1%, w/v; Roche), BSA (0.5%, w/v), and 9 mm Na2HPO4 at 18 °C for 14-16 h while gentle shaking. After incubation, the oocytes were carefully washed several times with ND96 buffer (96 mM NaCl, 2 mM KCl, 1.8 mM CaCl2, 1 mM MgCl2 buffered with 5 mM HEPES/NaOH, pH 7.5) supplemented with 100 mg l^−1 gentamycin). Defolliculated and healthy-looking stage V-VI oocytes were manually selected for RNA microinjection. The RNA was generated as following: The codon-optimized sequences of PfCRT variants were cloned into the pSP64T expression vector. After vector linearization using the restriction endonucleases BamHI or SalI (New England Biolabs), transcription was performed using the in vitro SP6 mMessage mMachine Kit (Ambion)[34]. The obtained RNA was kept at −80 °C and diluted with nuclease-free water to a concentration of 0.6 μg μl^−1. Precision-bore glass capillary tubes (3.5-inch glass capillaries; Drummond Scientific Co.) were pulled on a vertical puller (P-87 Flaming/Brown micropipette puller, Sutter Instrument Co.), graduated, and placed on a microinjector (Nanoject II Auto-Nanoliter Injector, Drummond Scientific Co.). 50 nl of nuclease-free water alone (control oocytes) or 50 nl of 0.6 μg μl^−1 RNA were injected under stereomicroscopic control. Injected oocytes were incubated for 46–72 h at 18 °C with twice-daily buffer changes before usage in experiments.
Drug uptake assays were performed as described previously[21],[22],[24],[34]. […] The direction of radio-labeled drug transport is here from the mostly acidic extracellular solution (pH 4.5 or 6.0, as indicated) into the oocyte cytosol (pH ∼ 7.2), which corresponds to the efflux of drug from the acidic digestive vacuole (pH 5.2) into the parasite cytoplasm (pH 7.2). The topology of PfCRT in the oolemma is such that both the N- and C-terminus face the extracellular milieu[3],[22]. In the parasite, the N- and C-terminus face the lumen of the digestive vacuole. […] For determination of the amount of drug uptake for each oocyte, the reaction medium was removed and the oocytes were washed three times with 2 ml of ice-cold ND96 buffer. Each oocyte was individually transferred to a scintillation vial containing 5% sodium dodecyl sulfate (200 μl) for lysis. […] Oocytes that were injected with water instead of RNA were analyzed in parallel, representing the uptake of a drug by diffusion and/or endogenous permeation pathways. The resulting value represents the “background“ level of drug accumulation in oocytes (in-depth discussion in[22]). The specific PfCRT-mediated uptake was determined by subtracting the corresponding background value measured in water-injected oocytes from that of PfCRT-expressing oocytes. In all cases, at least three separate experiments were performed on oocytes from different frogs (biological replicate), and for each condition in an experiment, measurements were made from 10 oocytes per treatment. For pH 5.5, 6.0, and 6.5, ND96 was buffered with 5 mM MES/Tris base.

[1] = E207W, 50 µM CQ, 1 h, mean ± SEM

CCN(CC)CCCC(C)Nc1ccnc2cc(Cl)ccc12 (stereo not drawn) [CQ, chloroquine]
Activity at pH 4.5 (PfCRT variant E54A; 50 µM CQ, 1 h, mean ± SEM): 1.38 ± 0.17 pmol h-1 oocyte-1 | Activity at pH 6.0 (PfCRT variant E54A; 50 µM CQ, 1 h, mean ± SEM): 3.36 ± 0.45 pmol h-1 oocyte-1 | R-value (PfCRT variant E54A; CQ transport at pH 4.5 / pH 6.0): 0.44 ± 0.07 | Activity at pH 4.5 (PfCRT variant E207W; [1]): 2.40 ± 0.17 pmol h-1 oocyte-1 | Activity at pH 6.0 (PfCRT variant E207W; [1]): 3.18 ± 0.35 pmol h-1 oocyte-1 | R-value (PfCRT variant E207W; E207W, CQ transport at pH 4.5 / pH 6.0): 0.78 ± 0.06 | E207W transport activity pH 4.5 (PfCRT variant E207W; pH 4.5, individual replicates, Fig 6b): 2.68 pmol oocyte-1 h-1 and 2.94 pmol oocyte-1 h-1 and 1.91 pmol oocyte-1 h-1 and 1.82 pmol oocyte-1 h-1 and 2.34 pmol oocyte-1 h-1 | E207W transport activity pH 6.0 (PfCRT variant E207W; pH 6.0, individual replicates, Fig 6b): 2.46 pmol oocyte-1 h-1 and 4.37 pmol oocyte-1 h-1 and 2.52 pmol oocyte-1 h-1 and 2.14 pmol oocyte-1 h-1 and 3.58 pmol oocyte-1 h-1 and 4.02 pmol oocyte-1 h-1 | E207W R-value (PfCRT variant E207W; ratio of activity pH 4.5 / pH 6.0): 0.67 and 0.76 and 0.85 and 0.65
